Each block holds one compound with its values, some of them ahead of it.
What was measured:
[1] = Density of oxygenate additive (main properties comparison)
[2] = Solubility in gasoline or aviation turbine fuel; format: physicochemical
[3] = Solubility / miscibility in diesel fuel; format: physicochemical

Lower heating value (Lower heating value): 24.5 kJ/g
Density [1]: 937 kg/m^3
Heat of combustion (Heat of combustion): -2.52e+07 J/kg
Lower flammability limit (Lower flammability limit): 1.2 % vol
Flash point (Flash point): 70 °C
Compound: COCCOCCOC [DGM, diethylene glycol dimethyl ether]

dissolution in gasoline or aviation turbine fuel [2]: completely dissolved
solubility in diesel fuel ([3]; diesel fuel): ~100%
Compound: COCC(COC)OC [GTME, glycerol trimethyl ether]

miscibility with diesel fuel ([3]; too much amount mixed with diesel fuel): phase separation
Compound: glycerol dimethyl ethers [GDMEs]

From patent US20130133245A1, “OXYGENATE ADDITIVE FOR INTERNAL COMBUSTION ENGINE FUEL, FUEL COMPOSITION COMPRISING THE SAME AND IMPROVED PROCESS FOR PRODUCING HIGHLY METHYLATED GLYCEROL ETHERS” (priority 2011, published 2013)
